Test results taken from US20250305010A1, “LIPID COMPOSITIONS AND METHODS OF PRODUCING SAME” (Wilk Technologies International Ltd., priority 2022, published 2025).

Columns and labels:
Type in all cases: cell-based, bovine
[1] = test system: mammary epithelial cells (MECs); experiment: Lipids / lipid metabolites released to the culture medium of MECs; conditions: 1 μM/ml LXRa with OA
Procedure: (§1) Total lipids were extracted from the intact cells by NP-40 and from media by cold-extraction procedure developed by Folch et al. with few adaptations. Briefly, a 5-ml aliquot of methanol: chloroform solution (2:1, v/v) was added to each sample. After incubation at room temperature, 1 ml of double-distilled water was added. After overnight incubation at 4° C., the upper phase was discarded, and the lower phase was filtered through a Pasteur pipette with glass wool. Samples were then dried under a nitrogen stream at 65° C., diluted in 100 μl 0.5% NP-40. Of note, lipid metabolites are measured by Cobas measurement, which is a parameter for lipid activity but measures also glycerol, the plate assay on the other hand measures TGs specifically while eliminating the glycerol background. After treatment, medium was collected and centrifuged at 500 g for 10 min. The supernatant was transferred to a fresh tube and kept at 4° C. until analysis. Medium triglyceride content was quantified with a Triglyceride Quantification Kit (lipase assay Abcam, Cambridge, UK). Quantification was performed against external standard curves and expressed as μg/10∧6 live cells. Live cell number was determined with a hemocytometer after Trypan blue staining.

[2] = test system: mammary epithelial cells (MECs); experiment: Cell viability and morphology of MECs under oleic acid with or without LXRa
Procedure: 1. Oleic acid treatment: Oleic acid was added to the induction medium at […] final concentration. Treatment was carried for 1 up to 7 days.
2. […] LXRa was added into the media with or without Oleic acid. Two LXR agonists were tested: GW3965 (LXR1, SIGMA) and T0901317 (LXR2, SIGMA), each at a concentration of luM/ml for at least overnight (ON) incubation. The OA was added after cells reached the confluency of at least 80%.
The analysis was done for the presence of 360 μM OA or 1100 μM OA with or without LXRa (TO901317).

[3] = test system: mammary epithelial cells (MECs); experiment: Intracellular triglycerides (TGs) in MECs, plate assay
Procedure: as §1, with “1. Oleic acid treatment: Oleic acid was added to the induction medium at […] final concentration. Treatment was carried for 1 up to 7 days. 2. […] LXRa was added into the media with or without Oleic acid. Two LXR agonists were tested: GW3965 (LXR1, SIGMA) and T0901317 (LXR2, SIGMA), each at a concentration of luM/ml for at least overnight (ON) incubation. The OA was added after cells reached the confluency of at least 80%. After treatment, cells were harvested with trypsin (0.05%), washed with 0.9% (w/v) NaCl and stored at −20° C. until lipid extraction. Total” for “Total”

[4] = test system: LXR downstream genes: SREBP1, FASN, SLC25A1 and SQLE; experiment: RT-PCR expression of LXR downstream lipid metabolism genes in MECs after overnight LXR agonist incubation; conditions: OA incubation of MECs
Procedure: A primary culture of MEC was isolated from mammary biopsies. Briefly, udder tissue was collected from lactating cows in a commercial slaughterhouse and immediately submerged in ice-cold growth medium, DMEM-F12, with 1000 U/ml penicillin, 1 mg/ml streptomycin, 2.5 μg/ml amphotericin B mixture, and 0.02 mg/ml heparin supplementation to prevent cell clotting after digestion. Study protocols followed the regulations of the Israeli Ministry of Health. Cells were grown in plastic culture dishes with DMEM/F12 supplemented with 10% (w/v) FBS, 100 U/ml penicillin, 100 μg/ml streptomycin, 0.25 μg/ml amphotericin B supplemented with insulin (1 μg/ml), hydrocortisone (0.5 μg/ml) and prolactin (1 μg/ml). 2. […] LXRa was added into the media with or without Oleic acid. Two LXR agonists were tested: GW3965 (LXR1, SIGMA) and T0901317 (LXR2, SIGMA), each at a concentration of luM/ml for at least overnight (ON) incubation. The OA was added after cells reached the confluency of at least 80%. Cells were harvested using the […] reagent and pellet was collected by centrifugation of 3 min in 300 rcf. RNA was extracted from 1×10^6 cells using NzytechTM total RNA isolation kit (MB13402). cDNA was prepared using SensiFastTM cDNA kit (0.5μgr RNA/20 μl reaction mix). RT-PCR was done with the following primers by using SensiFastTM RT-PCR kit with 1.25-20 ng cDNA/well. [table] […]

| Compound | Lipids release to the medium [1] | Effect of LXRa on oleic acid toxicity (cells viability and morphology) ([2]; LXRa 1 μM/ml TO901317, 360 μM or 1100 μM OA) | Higher intracellular TGs levels vs OA only ([3]; 360 μM OA treatment, LXRa 1 μl/ml) | Delta triglycerides (TGs) levels inside cells with vs without LXRa ([3]; FIG. 3) | Effect of LXR agonist on intracellular TGs ([3]; OA concentrations higher than 360 μM) | Effect on LXR dependent gene expression of lipid metabolism [4] | Effect on cells viability ([2]; oleic acid above 300 μM or longer than one day) |
| --- | --- | --- | --- | --- | --- | --- | --- |
| O=S(=O)(c1ccccc1)N(CC(F)(F)F)c1ccc(C(O)(C(F)(F)F)C(F)(F)F)cc1 [LXRa, T0901317] | release lipids to the medium | ameliorates the negative effect | 60% | similar | not observed |  |  |
| CCCCCCCC/C=C\CCCCCCCC(=O)O [Oleic acid, oleic acid] |  |  |  |  |  | no effect | negative effect |
